We go through two molecules from US6984632B1, “Complexes of paroxetine, with cyclodextrins or cyclodextrin derivatives” (Italfarmaco S.p.A., priority 1999, dated 2006).

Molecules are shown by their SMILES. Values after ≈ are worked out from the molar mass of the structure shown. Counter-ions that a name gives are not always drawn.

Holding throughout (assay type): physicochemical
The nature of data set [1]: Solubility in water of complexes of Examples 1-5 vs non-complexed paroxetine HCl. The conditions noted are these: thermodynamic from solid; deionized water, 25° C., 24 hours stirring, spectrophotometry at 295 nm. On the procedure: A solubility test was carried out on an amount of the complexes of Examples 1 to 5 corresponding 500 mg of paroxetine HCl and, as a comparison, on 500 mg of non-complexed paroxetine HCl.
Each sample was introduced into a container containing 5 ml of deionized water. The containers, closed with a plug were then set under stirring in a thermostatic bath at 25° C. for 24 hours.
The obtained suspensions were then filtered through a cellulose acetate filter and analysed by spectrophotometry at 295 nm, in comparison with a standard solution of paroxetine.
The results obtained are reported in FIG. 1 wherein the solubility of paroxetine HCl (in mg/ml) is represented as a function of the molar ratio between β-cyclodextrin and paroxetine HCl.

A short description of data set [2]: Solubility in water of complex of Example 9 vs non-complexed paroxetine base. The conditions noted are these: thermodynamic from solid; deionised water, room temperature, 4 hours stirring, spectrophotometry at 293 nm; read-out: solubility (content of paroxetine base in the solution). On the procedure:
5 g of the product of Example 9 were added to 10 ml of deionised water and kept under stirring for 4 hours at room temperature.
The suspension was then filtered through a cellulose acetate filter in order to remove the undissolved product.
The solution was analysed by 293 nm spectrophotometry against a standard solution of paroxetine base.

Data set [3] in a line: Stability at 60° C., visual examination. As to the method: About 200 mg of paroxetine base and 1 g of the complex of Example 9 (corresponding to about 180 mg of paroxetine base) have each been introduced in a neutral white glass containers and stored, opened, in an oven at 60° C.
The product in the two containers has been visually examined after 48 hours of storage.

For `Fc1ccc([C@@H]2CCNC[C@H]2COc2ccc3c(c2)OCO3)cc1` [non-complexed paroxetine HCl, paroxetine HCl], in data set [1], the solubility (in general, the concentration that dissolves in the medium under given conditions) at 24 h was 5000 µg/mL.

Take `Fc1ccc([C@@H]2CCNC[C@H]2COc2ccc3c(c2)OCO3)cc1` [Paroxetine base, Paroxetine]: in data set [2], the solubility at 4 h is 300 µg/mL (≈ 911 µM). The visual appearance entry is reported as “Brown liquid” in data set [3] (48 h 60° C., open glass container) and “Straw-Yellow liquid” in data set [3] (Initial).
